Article PMC10442857, “Cellular Uptake of a Fluorescent Ligand Reveals Ghrelin O-Acyltransferase Interacts with Extracellular Peptides and Exhibits Unexpected Localization for a Secretory Pathway Enzyme” (ACS Chemical Biology, 2023)
Where two headings read alike, the source gives them in different places. Square brackets hold non-standard residues; d marks the D form. Peptide text beside a SMILES is read from it. * marks the point of attachment. X1 = CN1/C(=C/C=C/C=C/C2=[N+](CCCCCC(=O)*)c3ccc(S(=O)(=O)[O-])cc3C2(C)C)C(C)(C)c2cc(S(=O)(=O)O)ccc21; 1Nal = N[C@@H](Cc1cccc2ccccc12)C(=O)O; Octanoyl = CCCCCCCC(=O)*; Dap = NC[C@H](N)C(=O)O

B1: ligand 4, H-Aib-S-Dap-FLSPY-NH2 (peptide)
chain: XSXFLSPY
HELM: PEPTIDE1{[Aib].S.[NC[C@H](N[*:1])C(=O)[*:2]].F.L.S.P.Y.[am]}$$$$V2.0
SMILES: CC(C)C[C@H](NC(=O)[C@H](Cc1ccccc1)NC(=O)[C@H](CN)NC(=O)[C@H](CO)NC(=O)C(C)(C)N)C(=O)N[C@@H](CO)C(=O)N1CCC[C@H]1C(=O)N[C@@H](Cc1ccc(O)cc1)C(N)=O
B2: ligand 1, H-GS-Dap-FLSPY-NH2 (peptide)
chain: GSXFLSPY
HELM: PEPTIDE1{G.S.[NC[C@H](N[*:1])C(=O)[*:2]].F.L.S.P.Y.[am]}$$$$V2.0
SMILES: CC(C)C[C@H](NC(=O)[C@H](Cc1ccccc1)NC(=O)[C@H](CN)NC(=O)[C@H](CO)NC(=O)CN)C(=O)N[C@@H](CO)C(=O)N1CCC[C@H]1C(=O)N[C@@H](Cc1ccc(O)cc1)C(N)=O
B3: ligand 13, H-GS-Dap-Nal-2-LSPT-NH2 (peptide)
chain: GSXXLSPT
HELM: PEPTIDE1{G.S.[NC[C@H](N[*:1])C(=O)[*:2]].[O=C([C@H](Cc1ccc2ccccc2c1)N[*:1])[*:2]].L.S.P.T.[am]}$$$$V2.0
SMILES: CC(C)C[C@H](NC(=O)[C@H](Cc1ccc2ccccc2c1)NC(=O)[C@H](CN)NC(=O)[C@H](CO)NC(=O)CN)C(=O)N[C@@H](CO)C(=O)N1CCC[C@H]1C(=O)N[C@H](C(N)=O)[C@@H](C)O

How the values were obtained:
[1] = biological target: T1, GHSR (GHS-R1a) (Homo sapiens, UniProt Q92847); parameters: method as in Charron et al.[22]; settings: ref Charron et al.[22]; read-out: IC50 against GHSR; cited from earlier work
T1 construct: expressed in transfected cells; host or cells: HEK 293 cells transfected with GHS-R1a (membrane suspension)
Target sequence in this assay (Q92847 whole entry, species assumed): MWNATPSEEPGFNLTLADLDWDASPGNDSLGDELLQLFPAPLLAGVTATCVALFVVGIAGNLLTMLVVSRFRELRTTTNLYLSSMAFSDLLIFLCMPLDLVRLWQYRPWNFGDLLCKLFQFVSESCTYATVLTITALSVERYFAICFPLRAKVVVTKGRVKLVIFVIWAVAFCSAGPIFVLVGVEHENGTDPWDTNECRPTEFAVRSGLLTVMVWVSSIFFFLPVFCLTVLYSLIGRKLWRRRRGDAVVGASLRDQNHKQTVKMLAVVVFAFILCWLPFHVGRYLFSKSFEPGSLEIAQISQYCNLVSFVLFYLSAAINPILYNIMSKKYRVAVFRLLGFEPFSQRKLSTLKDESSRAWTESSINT

[2] = biological target: T2, hGOAT (Homo sapiens, UniProt Q96T53); experiment: hGOAT inhibition assay (octanoylation of GSSFLCAcDan by Sf9 membrane fraction expressing hGOAT, HPLC fluorescence); assay type: biochemical; settings: read-out: IC50 against hGOAT
T2 construct: 3xHA (C); FLAG (C); His6 (C); made in house; host or cells: Sf9 insect cells (baculovirus), crude membrane fraction
T2 sequence (Q96T53 1-435): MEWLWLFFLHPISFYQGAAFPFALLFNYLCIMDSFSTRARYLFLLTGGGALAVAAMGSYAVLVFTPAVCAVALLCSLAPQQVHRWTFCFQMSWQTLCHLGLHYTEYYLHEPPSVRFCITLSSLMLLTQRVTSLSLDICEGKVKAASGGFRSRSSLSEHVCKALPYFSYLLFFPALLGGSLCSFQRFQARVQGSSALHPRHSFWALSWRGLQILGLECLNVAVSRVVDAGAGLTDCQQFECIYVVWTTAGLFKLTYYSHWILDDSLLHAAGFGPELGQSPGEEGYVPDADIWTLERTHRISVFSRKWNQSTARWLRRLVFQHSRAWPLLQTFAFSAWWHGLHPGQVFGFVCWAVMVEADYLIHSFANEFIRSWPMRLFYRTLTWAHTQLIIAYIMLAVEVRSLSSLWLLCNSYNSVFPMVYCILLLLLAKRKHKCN
Protocol: Assays were performed using previously reported protocols,[57],[58] as described in the Supporting Information. […]
hGOAT inhibition assays. Assays were performed using previously reported protocols.2-3 For each assay, membrane fraction from Sf9 cells expressing hGOAT was thawed on ice and homogenized by passage through an 18-gauge needle 10 times. Assays were performed with 50 µg of membrane protein, as determined by Bradford assay. Membrane fraction was pre-incubated with 1 µM methyl […]
arachidonyl fluorophosphonate (MAFP) and unlabeled peptide inhibitor or vehicle as indicated in 50 mM HEPES pH 7.0 for 30 minutes at room temperature prior to reaction initiation.4 All reactions were initiated by the addition of 1.5 µM GSSFLCAcDan and 300 µM octanoyl CoA.
Reactions were incubated for 30 minutes at room temperature under foil. All assays were stopped with the addition of 50 µL of 20% acetic acid in isopropanol, and solutions were clarified by protein precipitation with 16.7 µL of 20% trichloroacetic acid, followed by centrifugation (1,000 x g, 2 minutes). The supernatant was then analyzed using reverse-phase HPLC with fluorescence detection as previously described.2-3 Peak integrations for both substrate and product peaks were calculated using Chemstation for LC (Agilent Technologies). Data reported are the average of three independent determinations, with error reported as standard deviation.
For determination of IC50 values, the percent activity at each inhibitor concentration was calculated from HPLC integration data using equations 1 and 2: To determine an IC50 value for a given inhibitor, the plot of % activity versus [inhibitor] was fit to equation 3, with % activity0 denoting hGOAT activity in the presence of the vehicle alone. All reported IC50 values represent the average of a minimum of three independent trials.
(1) % activity = % peptide acylation in presence of inhibitor
% peptide acylation in absence of inhibitor
(2) % peptide octanoylation = Fluorescence of acylated peptide
Total peptide fluorescence (acylated and non-acylated)
(3) % activity = % activity * (1- [inhibitor] )

[3] = biological target: human ghrelin O-acyltransferase (hGOAT) of the hGOAT inhibition assays (human) (UniProt Q96T53)
[4] = biological target: T1, GHSR (GHS-R1a); experiment: biochemical; assay type: binding; settings: lower limit from test at 100 µM; read-out: IC50 against GHSR
Protocol: Peptide binding affinity for the ghrelin receptor was determined using a competitive radioligand-displacement binding assay,[22] with details provided in the Supporting Information. […]
GHSR receptor binding assays. Peptide binding affinity for the ghrelin receptor was determined using a competitive radioligand-displacement binding assay.1 Assays were performed using GHS-R1a transfected HEK 293 cells as the receptor source and human His[125I]-ghrelin(1−28) (PerkinElmer Inc. NEX388010UC ) as the radioligand. Human ghrelin(1−28) was used as a reference to ensure the validity of the results. A suspension of membrane from HEK 293/GHS-R1a cells (100,000 cells per assay tube) were incubated with ghrelin(1−8) peptide analogues (at […]
ghrelin (15 pM per assay tube) in binding buffer (25 mM HEPES, 5 mM magnesium chloride, 1 mM calcium chloride, 2.5 mM EDTA, and 0.4% BSA, pH 7.4). The resulting suspension was incubated for 20 min under shaking (550 rpm) at 37 °C. Unbound [ 125I]-ghrelin was removed and the amount of [ 125I]-ghrelin bound to the membranes was measured by γ counter. IC 50 values were determined by nonlinear regression analysis to fit a four-parameter dose−response curve using Prism 6 (version 6.0c). All binding assays were performed in triplicate. […]

[5] = biological target: T3, human ghrelin O-acyltransferase (hGOAT) of the hGOAT inhibition assays (human, UniProt Q96T53 1-435); experiment: cell-based or functional assay
T3 sequence (looked up): T2 sequence (Q96T53 1-435)

[6] = average of three independent trials ± one standard deviation

| Molecule | IC50 [1] [nM] | IC50 [2, 6] [nM] | further results |
| --- | --- | --- | --- |
| CCCCCCCC(=O)NC[C@H](NC(=O)[C@H](CO)NC(=O)CN)C(=O)N[C@@H](Cc1ccccc1)C(=O)N[C@@H](CC(C)C)C(=O)N[C@@H](CO)C(=O)N1CCC[C@H]1C(=O)N[C@@H](Cc1ccc(O)cc1)C(N)=O [ligand 2, H-GS-(C8-Dap)-FLSPY-NH2] (H-GS[Dap](Octanoyl)FLSPY-NH2) | 65 | 64 ± 21 | – |
| ligand 11, H-GS-(C8-Dap)-FLSPT-NH2 (peptide) | – | – | inhibition of hGOAT activity (IC50 against hGOAT) [3]: 27 nM |
| CCCCCCCC(=O)NC[C@H](NC(=O)[C@H](CO)NC(=O)CN)C(=O)N[C@@H](Cc1ccccc1)C(=O)N[C@@H](CC(C)C)C(=O)N[C@@H](CO)C(=O)N1CCC[C@H]1C(=O)N[C@@H](CC(N)=O)C(N)=O [ligand 10, H-GS-(C8-Dap)-FLSPN-NH2] (H-GS[Dap](Octanoyl)FLSPN-NH2) | 31.9 | 59 ± 7 | – |
| CC(C)C[C@H](NC(=O)[C@H](Cc1ccccc1)NC(=O)[C@H](CN)NC(=O)[C@H](CO)NC(=O)C1CCNCC1)C(=O)N[C@@H](CO)C(=O)N1CCC[C@H]1C(=O)N[C@@H](Cc1ccc(O)cc1)C(N)=O [ligand 5, H-Inp-S-Dap-FLSPY-NH2] (HELM PEPTIDE1{[O=C(C1CCNCC1)[*:2]].S.[NC[C@H](N[*:1])C(=O)[*:2]].F.L.S.P.Y.[am]}$$$$V2.0) | – | – | IC50 [4]: ≥ 100000 nM; IC50 [2]: > 100000 nM |
| CCCCCCCC(=O)NC[C@H](NC(=O)[C@H](CO)NC(=O)CN)C(=O)N[C@@H](Cc1ccccc1)C(=O)N[C@@H](CC(C)C)C(=O)N[C@@H](CO)C(=O)N1CCC[C@H]1C(=O)N[C@H](C(N)=O)[C@@H](C)O [ligand 11, H-GS-(C8-Dap)-FLSPT-NH2] (H-GS[Dap](Octanoyl)FLSPT-NH2) | 3.3 | 27 ± 8 | – |
| CC(C)C[C@H](NC(=O)[C@H](Cc1ccc2ccccc2c1)NC(=O)[C@H](CN)NC(=O)[C@H](CO)NC(=O)CN)C(=O)N[C@@H](CO)C(=O)N1CCC[C@H]1C(=O)N[C@H](C(N)=O)[C@@H](C)O [ligand 13, H-GS-Dap-Nal-2-LSPT-NH2] (HELM PEPTIDE1{G.S.[NC[C@H](N[*:1])C(=O)[*:2]].[O=C([C@H](Cc1ccc2ccccc2c1)N[*:1])[*:2]].L.S.P.T.[am]}$$$$V2.0) | – | – | IC50 [4]: ≥ 100000 nM |
| CC(C)C[C@H](NC(=O)[C@H](Cc1cccc2ccccc12)NC(=O)[C@H](CN)NC(=O)[C@H](CO)NC(=O)CN)C(=O)N[C@@H](CO)C(=O)N1CCC[C@H]1C(=O)N[C@H](C(=O)N[C@@H](CCCCNC(=O)CCCCC[N+]1=C(/C=C/C=C/C=C2/N(C)c3ccc(S(=O)(=O)O)cc3C2(C)C)C(C)(C)c2cc(S(=O)(=O)[O-])ccc21)C(N)=O)[C@@H](C)O [ligand 15, H-GS-Dap-Nal-1-LSPTK(SulfoCy5)-NH2] (H-GS[Dap][1Nal]LSPTK(X1)-NH2) | – | 17 ± 2 | – |
| CCCCCCCC(=O)NC[C@H](NC(=O)[C@H](CO)NC(=O)CN)C(=O)N[C@@H](Cc1ccccc1)C(=O)N[C@@H](CC(C)C)C(=O)N[C@@H](CO)C(=O)N1CCC[C@H]1C(=O)N[C@@H](CCC(=O)O)C(N)=O [ligand 9, H-GS-(C8-Dap)-FLSPE-NH2] | 200 | 580 ± 60 | – |
| B1 | – | – | inhibition of hGOAT activity (IC50 against hGOAT) [5]: > 100000 nM |
| B2 | – | – | inhibition of hGOAT activity (IC50 against hGOAT) [5]: 104 nM |
| B3 | – | – | inhibition of hGOAT activity (IC50 against hGOAT) [5]: 16 nM |
